Source: article PMC11905058, “Novel Leech Antimicrobial Peptides, Hirunipins: Real‐Time 3D Monitoring of Antimicrobial and Antibiofilm Mechanisms Using Optical Diffraction Tomography” (Advanced Science, 2025)
No end group written: not given here.

Key:
[1] = tested on: MDRAB (329-53); conditions: for Interpretation of FICI / FICI: fractional inhibitory concentration index, FICA + FICB: antibiotic in combination with hirunipin 2; for MICA: MIC of antibiotic alone: checkerboard, MDRAB, 1×10^6 CFU/mL; for FICA: fractional inhibitory concentration of antibiotic ([A] / MICA) / [A]: MIC of antibiotic in combination: in combination with hirunipin 2
Experimental: Synergy testing by checkerboard assay: Briefly, each 96-well microtiter plate was inoculated with two-fold serial dilutions of two antibiotics, ranging from 1/8 MIC to 2 MIC, such that one antibiotic was inoculated in the columns and the other in the rows. Then, MDRAB (329-53) cells were inoculated at a concentration of 1× 10^6 CFU/mL. The plates were incubated overnight under static conditions and observed visually.

[2] = tested on: MDRPA (314-69); assay type: cell-based, Pseudomonas aeruginosa; conditions: 24 h
Experimental: (§1) The MICs of the peptides were measured by the Clinical and Laboratory Standards Institute (CLSI) broth microdilution method, as outlined in a previous study.^[ [26], [27] ^]
(§2) Microbial Strains and Cell Lines: Multiple bacterial strains were used in this study. Standard stains included Escherichia coli (KCTC 1682), Pseudomonas aeruginosa (KCTC 1637), Staphylococcus aureus (KCTC1621) and Staphylococcus epidermidis (KCTC 1917) supplied from the Korean Collection for Type Cultures (KCTC) of the Korea Research Institute of Bioscience and Biotechnology (KRIBB). Clinically isolated multidrug-resistant bacteria included multidrug-resistant Klebsiella pneumonia (MDRKP 328-83), multidrug-resistant Acinetobacter baumannii (MDRAB 329-53), multidrug-resistant Pseudomonas aeruginosa (MDRPA 314-69), multidrug-resistant Enterobacter cloacae (MDRE 328-84) and multidrug-resistant Escherichia coli (MDREC 329-66) provided from Hospital of Chosun University, Korea. All bacterial strains were stored in 20% glycerol at −80 °C. For the subsequent experiments, the bacteria were recovered and cultured in the corresponding enrichment broth at 37 °C. The mouse macrophage RAW264.7, mouse fibroblast NIH-3T3 and human keratinocyte HaCat cells were cultured in Dulbecco’s modified Eagle’s medium (DMEM), supplemented with 10% (v/v) of fetal bovine serum (Sigma-Aldrich), 100 U/mL of penicillin and 0.1 mg/mL of streptomycin, at 37 °C in the presence of 5% CO2
(§3) Minimal Inhibitory Concentrations (MICs): Bacteria were grown to mid-logarithmic phase and diluted in Mueller-Hinton broth (MHB) (Difco). The bacterial suspension (1×10^6 CFU/well) was added to a 96-well microtiter plate along with a two-fold serial dilution of samples. The plate was incubated at 37 °C for 24 hours and the bacterial growth inhibition was assessed by measuring the optical density using an ELISA plate reader. The minimum inhibitory concentration (MIC) was defined as the lowest concentration of samples that prevented visible bacterial growth.

[3] = tested on: MDREC (329-66); assay type: cell-based, Escherichia coli; conditions: 24 h
Experimental: as §1, §2, §3

[4] = tested on: MDRAB (329-53); assay type: cell-based, Acinetobacter baumannii; conditions: 24 h
Experimental: as §1, §2, §3

[5] = tested on: Staphylococcus aureus [KCTC1621]; assay type: cell-based; conditions: KCTC1621, 24 h
Experimental: as §1, §3

[6] = tested on: Pseudomonas aeruginosa [KCTC 1637]; assay type: cell-based; conditions: KCTC 1637, 24 h
Experimental: as §1, §3

[7] = tested on: Staphylococcus epidermidis [KCTC 1917]; assay type: cell-based; conditions: KCTC 1917, 24 h
Experimental: as §1, §3

[8] = tested on: Escherichia coli [KCTC 1682]; assay type: cell-based; conditions: KCTC 1682, 24 h
Experimental: as §1, §3

[9] = tested on: MDRE (328-84); assay type: cell-based, Enterobacter cloacae; conditions: 24 h
Experimental: as §1, §2, §3

[10] = tested on: MDRKP (328-83); assay type: cell-based, Klebsiella pneumonia; conditions: 24 h
Experimental: as §1, §2, §3

[11] = tested on: S. aureus (KCTC1621); assay type: cell-based, Staphylococcus aureus; conditions: KCTC1621, 24 h
Experimental: as §3, with “The salt sensitivity of the peptides was also analyzed. […] The MIC values in the physiological environment were determined as described above, and data were acquired from three independent assays performed in triplicate. Minimal” for “Minimal”

[12] = tested on: E. coli (KCTC 1682); assay type: cell-based, Escherichia coli; conditions: KCTC 1682, 24 h
Experimental: as §3, with “The salt sensitivity of the peptides was also analyzed. […] The MIC values in the physiological environment were determined as described above, and data were acquired from three independent assays performed in triplicate. Minimal” for “Minimal”

O=C(O)c1cn(C2CC2)c2cc(N3CCNCC3)c(F)cc2c1=O [CIP, Ciprofloxacin]
Interpretation of FICI [1]: synergy (FICI ≤ 0.5 was interpreted as synergy)
MICA: MIC of antibiotic alone [1]: 128 µg/mL
FICA: fractional inhibitory concentration of antibiotic ([A] / MICA) [1]: 0.25
[A]: MIC of antibiotic in combination [1]: 32 µg/mL

CO[C@H]1/C=C/O[C@@]2(C)Oc3c(C)c(O)c4c(O)c(c(/C=N/N5CCN(C)CC5)c(O)c4c3C2=O)NC(=O)/C(C)=C\C=C\[C@H](C)[C@H](O)[C@@H](C)[C@@H](O)[C@@H](C)[C@H](OC(C)=O)[C@@H]1C [RIF, Rifampicin]
FICI: fractional inhibitory concentration index, FICA + FICB [1]: 0.3125
Interpretation of FICI [1]: synergy (FICI ≤ 0.5 was interpreted as synergy)
MICA: MIC of antibiotic alone [1]: 16 µg/mL
FICA: fractional inhibitory concentration of antibiotic ([A] / MICA) [1]: 0.0625
[A]: MIC of antibiotic in combination [1]: 1 µg/mL

YFKIIKFLPKALKCLLPQKHKEHGNL-NH2 [Hirunipin 3]
Minimum inhibitory concentrations, MDRPA (314-69) [2]: >128 µg/mL
Minimum inhibitory concentrations, MDREC (329-66) [3]: 128 µg/mL
Minimum inhibitory concentrations, MDRAB (329-53) [4]: >128 µg/mL
Minimum inhibitory concentration (MIC), Staphylococcus aureus [KCTC1621] [5]: 128 µg/mL
Minimum inhibitory concentration (MIC), Pseudomonas aeruginosa [KCTC 1637] [6]: 128 µg/mL
Minimum inhibitory concentration (MIC), Staphylococcus epidermidis [KCTC 1917] [7]: 64 µg/mL
Minimum inhibitory concentration (MIC), Escherichia coli [KCTC 1682] [8]: 128 µg/mL
Minimum inhibitory concentrations, MDRE (328-84) [9]: >128 µg/mL
Minimum inhibitory concentrations, MDRKP (328-83) [10]: >128 µg/mL
MIC against S. aureus (KCTC1621), 4 µM FeCl3 [11]: >256 µg/mL
MIC against S. aureus (KCTC1621), 6 µM NH4Cl [11]: 256 µg/mL
MIC against S. aureus (KCTC1621), 1 mM MgCl2 [11]: 256 µg/mL
MIC against S. aureus (KCTC1621), 2.5 mM CaCl2 [11]: 256 µg/mL
MIC against S. aureus (KCTC1621), 4.5 mM KCl [11]: 256 µg/mL
MIC against S. aureus (KCTC1621), 150 mM NaCl [11]: 256 µg/mL
MIC against S. aureus (KCTC1621), 25% Human serum [11]: >256 µg/mL
MIC against S. aureus (KCTC1621), Control [11]: 128 µg/mL
MIC against E. coli (KCTC 1682), 4 µM FeCl3 [12]: 32 µg/mL
MIC against E. coli (KCTC 1682), 6 µM NH4Cl [12]: 64 µg/mL
MIC against E. coli (KCTC 1682), 1 mM MgCl2 [12]: 256 µg/mL
MIC against E. coli (KCTC 1682), 2.5 mM CaCl2 [12]: 32 µg/mL
MIC against E. coli (KCTC 1682), 4.5 mM KCl [12]: 128 µg/mL
MIC against E. coli (KCTC 1682), 150 mM NaCl [12]: 128 µg/mL
MIC against E. coli (KCTC 1682), 25% Human serum [12]: 256 µg/mL
MIC against E. coli (KCTC 1682), Control [12]: 128 µg/mL

O=C(N[C@H](CO)[C@H](O)c1ccc([N+](=O)[O-])cc1)C(Cl)Cl [CHL, Chloramphenicol]
FICI: fractional inhibitory concentration index, FICA + FICB [1]: 0.1875
Interpretation of FICI [1]: synergy (FICI ≤ 0.5 was interpreted as synergy)
MICA: MIC of antibiotic alone [1]: 1024 µg/mL
FICA: fractional inhibitory concentration of antibiotic ([A] / MICA) [1]: 0.125
[A]: MIC of antibiotic in combination [1]: 128 µg/mL
